Reference: patent publication US20260184708A1, “PYRIDAZINONES AND METHODS OF USE THEREOF” (GFB (ABC), LLC, priority 2017, published 2026)
pIC50: −log10 of the molar value. Read-outs that look alike come from different tables or passages of the source.

Target: T1, TRPC5 (Homo sapiens, UniProt Q9UL62)
T1 construct: expressed in transfected cells; host or cells: HEK 293
T1 sequence (Q9UL62 1-973): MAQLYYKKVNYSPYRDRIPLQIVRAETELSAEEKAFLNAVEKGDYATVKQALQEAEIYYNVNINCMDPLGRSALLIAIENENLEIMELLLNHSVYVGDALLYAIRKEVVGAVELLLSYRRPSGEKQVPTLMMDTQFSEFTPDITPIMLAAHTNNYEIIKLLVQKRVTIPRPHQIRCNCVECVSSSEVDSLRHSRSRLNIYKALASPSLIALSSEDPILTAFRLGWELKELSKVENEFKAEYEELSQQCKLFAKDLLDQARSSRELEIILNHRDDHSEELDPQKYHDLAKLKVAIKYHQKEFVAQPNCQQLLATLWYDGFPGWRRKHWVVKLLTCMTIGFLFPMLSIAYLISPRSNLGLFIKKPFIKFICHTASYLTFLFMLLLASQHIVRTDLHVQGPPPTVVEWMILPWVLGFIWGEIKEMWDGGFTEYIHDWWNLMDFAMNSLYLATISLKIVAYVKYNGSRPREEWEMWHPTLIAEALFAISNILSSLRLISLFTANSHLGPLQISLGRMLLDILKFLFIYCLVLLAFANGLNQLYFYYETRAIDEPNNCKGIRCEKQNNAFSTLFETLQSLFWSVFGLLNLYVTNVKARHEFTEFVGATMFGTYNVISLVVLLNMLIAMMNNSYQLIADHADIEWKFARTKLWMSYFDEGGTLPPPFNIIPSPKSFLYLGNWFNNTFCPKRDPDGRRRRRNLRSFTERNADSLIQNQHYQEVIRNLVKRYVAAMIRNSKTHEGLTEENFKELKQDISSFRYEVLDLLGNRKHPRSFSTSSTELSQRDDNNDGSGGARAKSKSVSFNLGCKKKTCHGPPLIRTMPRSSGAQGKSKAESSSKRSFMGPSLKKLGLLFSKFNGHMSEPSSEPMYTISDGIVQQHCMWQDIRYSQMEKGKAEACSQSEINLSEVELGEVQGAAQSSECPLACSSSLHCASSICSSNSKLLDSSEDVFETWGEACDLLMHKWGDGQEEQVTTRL
Assay: TRPC5 automated patch clamp assay (Qpatch), current block after rosiglitazone stimulation
Type: cell-based
Conditions: HEK293 cells overexpressing TRPC5, rosiglitazone stimulation
Experimental: HEK 293 cells expressing human TRPC5 were harvested, re-suspended in serum free medium, and added to the automated platform and used within 2-3 hours. Internal and external physiological solutions were freshly prepared prior to the assay. The external solution contained: 145 mM NaCl, 4 mM KCl, 2 mM CaCl2), 1 mM MgCl2, 10 mM HEPES, 10 mM glucose, pH 7.4 with NaOH and 300 mOsm/L. The internal solution contained 120 mM L-aspartic acid, 120 mM CsOH·H2O, 20 mM CsCl, 2 mM MgCl2, 8.8 mM CaCl2), 10 mM EGTA, 10 mM HEPES, 10 mM Glucose, 0.1 mM GTP and 2 mM Na2ATP; pH 7.2 with CsOH and 290 mOsm/L. The free internal Ca2+ concentration was buffered to 1 μM.
The automated electrophysiological platform QPatch 16 from Sophion (Denmark) was used to carry out the compounds profiling. The series resistance and quality of seals were continuously monitored during the experiments. Data was analyzed using Sophion QPatch assay software 5.6 (Odense). IC50 values were calculated using a least squares regression algorithm (Hill equation).
To monitor the ion currents, a voltage ramp from −100 mV to +100 mV, over 300 ms, was applied every 10 seconds, from a holding potential of −60 mV.
After recording for a minimum of 60 seconds control period, Rosiglitazone (30 uM), was applied to activate the channel.

[1] = 80 mV, read-out: TRPC5_QP XC50_80
[2] = 100 mV, read-out: TRPC5_QP XC50_100
[3] = Table 4, 80 mV, read-out: TRPC5_QP_ XC50_80
[4] = Table 4, 100 mV, read-out: TRPC5_QP_ XC50_100
[5] = Table 5, 80 mV, read-out: TRPC5_QP_ XC50_80
[6] = Table 5, 100 mV, read-out: TRPC5_QP_ XC50_100
[7] = Table 3, 80 mV, read-out: TRPC5_QP_ XC50_80
[8] = Table 3, 100 mV, read-out: TRPC5_QP_ XC50_100

| Compound | pIC50 [3] | pIC50 [4] | pIC50 [5] | pIC50 [6] | other results |
| --- | --- | --- | --- | --- | --- |
| Cc1ccccc1CN1CCN(c2cn[nH]c(=O)c2Br)CC1 | – | – | – | – | pIC50 [1]: 5.30 to 6.00; pIC50 [2]: 5.30 to 6.00 |
| O=C1CN(c2cn[nH]c(=O)c2Cl)CCN1Cc1ccc(F)cc1OC(F)(F)F | 5.30 to 6.00 | 5.30 to 6.00 | – | – | – |
| Cc1cc(F)ccc1CN1CCN(c2cn[nH]c(=O)c2Cl)CC1=O | 5.30 to 6.00 | 5.30 to 6.00 | – | – | – |
| Cc1cc(F)ccc1CN1CCN(c2c(Br)n[nH]c(=O)c2Cl)CC1=O | – | – | 3.30 to 5.00 | 3.30 to 5.00 | – |
| O=c1[nH]ncc(N2CCC(Cc3ccccc3)CC2)c1Br | – | – | – | – | pIC50 [1]: 3.30 to 5.00; pIC50 [2]: 3.30 to 5.00 |
| Cc1ccccc1CN1CC2(C1)CN(c1cn[nH]c(=O)c1Br)C2 | – | – | – | – | pIC50 [7]: 3.30 to 5.00; pIC50 [8]: 3.30 to 5.00 |
| COCCOc1c(N2CCN(Cc3ccccc3C)C(=O)C2)cn[nH]c1=O | 3.30 to 5.00 | 3.30 to 5.00 | – | – | – |
| O=C1CN(c2cn[nH]c(=O)c2Cl)CCN1Cc1cccc2cn[nH]c12 | – | – | 3.30 to 5.00 | 3.30 to 5.00 | – |
| Cc1ccccc1CN1CC2(CCN(c3cn[nH]c(=O)c3Br)C2)C1 | – | – | – | – | pIC50 [7]: 3.30 to 5.00; pIC50 [8]: 3.30 to 5.00 |
| O=C1CN(c2c(Cl)cn[nH]c2=O)CCN1Cc1cccc(OC(F)(F)F)c1 | – | – | 3.30 to 5.00 | 3.30 to 5.00 | – |
| O=c1[nH]ncc(N2CCN(Cc3ccc(C(F)(F)F)cc3)CC2)c1Cl | – | – | – | – | pIC50 [7]: 3.30 to 5.00; pIC50 [8]: 3.30 to 5.00 |
| Cc1cc(F)ccc1CN1CCN(c2c(Br)n[nH]c(=O)c2Cl)CC1 | – | – | 3.30 to 5.00 | 3.30 to 5.00 | – |
| Cc1ccccc1CN1CCN(c2cn[nH]c(=O)c2C)CC1=O | – | – | – | – | pIC50 [7]: 5.00 to 5.30; pIC50 [8]: 5.00 to 5.30 |
| C[C@H](c1ccccc1)N1CCN(c2cn[nH]c(=O)c2Cl)CC1 | 5.30 to 6.00 | 5.30 to 6.00 | – | – | – |
| Cn1ncc2c(CN3CCN(c4cn[nH]c(=O)c4Cl)CC3)cccc21 | 3.30 to 5.00 | 3.30 to 5.00 | – | – | – |
| Cc1ncccc1CN1CCN(c2cn[nH]c(=O)c2Cl)CC1=O | – | – | 3.30 to 5.00 | 3.30 to 5.00 | – |
| C[C@@H](c1ccccc1)N1CCN(c2cn[nH]c(=O)c2Cl)CC1 | 5.00 to 5.30 | 5.30 to 6.00 | – | – | – |
| Cc1ccccc1CN1CCN(c2cn[nH]c(=O)c2)CC1 | – | – | – | – | pIC50 [1]: 3.30 to 5.00; pIC50 [2]: 3.30 to 5.00 |
| COc1cc(F)ccc1CN1CCN(c2cn[nH]c(=O)c2Cl)CC1=O [drawing 772] | – | – | 5.30 to 6.00 | 5.30 to 6.00 | – |
| Cc1cc(F)ccc1CN1CCN(c2c(Cl)cn[nH]c2=O)CC1 | – | – | – | – | pIC50 [7]: 5.30 to 6.00; pIC50 [8]: 5.30 to 6.00 |
| O=C1CN(c2c(Br)n[nH]c(=O)c2Cl)CCN1Cc1ccccc1C(F)(F)F | – | – | 5.30 to 6.00 | 5.00 to 5.30 | – |
| O=c1[nH]ncc(N2CCN(Cc3c(F)cccc3F)CC2)c1Cl | – | – | – | – | pIC50 [7]: 5.30 to 6.00; pIC50 [8]: 5.30 to 6.00 |
| CCS(=O)(=O)c1c(N2CCN(Cc3ccccc3C)C(=O)C2)cn[nH]c1=O | – | – | – | – | pIC50 [7]: 3.30 to 5.00; pIC50 [8]: 3.30 to 5.00 |
| COc1ccc(CN2CCN(c3cn[nH]c(=O)c3Cl)CC2=O)cc1 | – | – | 5.00 to 5.30 | 5.00 to 5.30 | – |
| CC[C@@H]1CN(Cc2ccc(F)cc2C)CCN1c1cn[nH]c(=O)c1Cl | – | – | 3.30 to 5.00 | 3.30 to 5.00 | – |
| O=c1[nH]ncc(N2CCOC(c3ccccc3)C2)c1Cl (stereo not drawn) | 3.30 to 5.00 | 3.30 to 5.00 | – | – | – |
| O=c1[nH]ncc(N2CCN(Cc3ccccc3C(F)(F)F)CC2)c1Cl [drawing 694] | – | – | – | – | pIC50 [7]: 5.30 to 6.00; pIC50 [8]: 5.30 to 6.00 |
| C=Cc1n[nH]c(=O)c(N2CCN(Cc3ccc(F)cc3C)CC2)c1Cl | – | – | 3.30 to 5.00 | 3.30 to 5.00 | – |
| Cc1ccccc1CN1CCN(c2cn[nH]c(=O)c2CCC(C)C)CC1=O [drawing 700] | 3.30 to 5.00 | 3.30 to 5.00 | – | – | – |
| C[C@@H]1CN(CC(=O)N(C)C)CCN1c1cn[nH]c(=O)c1Cl | 3.30 to 5.00 | 3.30 to 5.00 | – | – | – |
